Legend:
[1] = molecular target: T1, ABL1(E255K)-phosphorylated (Homo sapiens, UniProt P00519, E255K); test: KINOMEscan scanEDGE; format: binding; details: 20 uM
T1 construct: purchased Eurofins DiscoverX (KINOMEscan; SAFETYscan E/IC50 ELECT)

mdx mice [2] = test: Evans blue dye muscle uptake; format: in vivo, mouse; details: three-week treatment, nonexercised
Protocol: Prior to in vivo assessments, mice were dosed PO after a 2-hour fast with 10 mL/Kg suspensions. Grip strength and rotarod assessments were performed masked, 4 hours after dosing using published protocols ([66], [67]). Grip strength was performed with a Columbus Instruments Rodent Force Meter. Forepaw strength represented the average of 5 trials with 30-second rest periods, normalized by BW. Rotarod endurance was performed with a Columbus Instruments RotaMax. Mice were placed on the device drum at 1 rpm, which accelerated 1 rpm every 3 seconds to 12 rpm and a maximal time of 500 seconds. This was repeated 3 times with a 3-minute rest and total time reported. Voluntary wheel running performance was assessed with a customized system. Timestamped RPMs were measured 24 hours per day by infrared sensors, and a custom software calculated distance. Whole-body EBD was visualized after intravenous administration ([35]). EBD in PBS at 10 mg/mL was sterile filtered, and 50 μL/10 g BW was injected via tail vein. After 24 hours, animals were sacrificed, skin was removed and fixed in 4% formalin for 24 hours, and photographed using a Leica/Lumix camera.

FLT3 = molecular target: T2, FLT3 (Homo sapiens, UniProt P36888); test: KINOMEscan scanEDGE; format: binding; details: 20 uM
T2 construct: purchased Eurofins DiscoverX (KINOMEscan; SAFETYscan E/IC50 ELECT)
T2 sequence (P36888 27-993): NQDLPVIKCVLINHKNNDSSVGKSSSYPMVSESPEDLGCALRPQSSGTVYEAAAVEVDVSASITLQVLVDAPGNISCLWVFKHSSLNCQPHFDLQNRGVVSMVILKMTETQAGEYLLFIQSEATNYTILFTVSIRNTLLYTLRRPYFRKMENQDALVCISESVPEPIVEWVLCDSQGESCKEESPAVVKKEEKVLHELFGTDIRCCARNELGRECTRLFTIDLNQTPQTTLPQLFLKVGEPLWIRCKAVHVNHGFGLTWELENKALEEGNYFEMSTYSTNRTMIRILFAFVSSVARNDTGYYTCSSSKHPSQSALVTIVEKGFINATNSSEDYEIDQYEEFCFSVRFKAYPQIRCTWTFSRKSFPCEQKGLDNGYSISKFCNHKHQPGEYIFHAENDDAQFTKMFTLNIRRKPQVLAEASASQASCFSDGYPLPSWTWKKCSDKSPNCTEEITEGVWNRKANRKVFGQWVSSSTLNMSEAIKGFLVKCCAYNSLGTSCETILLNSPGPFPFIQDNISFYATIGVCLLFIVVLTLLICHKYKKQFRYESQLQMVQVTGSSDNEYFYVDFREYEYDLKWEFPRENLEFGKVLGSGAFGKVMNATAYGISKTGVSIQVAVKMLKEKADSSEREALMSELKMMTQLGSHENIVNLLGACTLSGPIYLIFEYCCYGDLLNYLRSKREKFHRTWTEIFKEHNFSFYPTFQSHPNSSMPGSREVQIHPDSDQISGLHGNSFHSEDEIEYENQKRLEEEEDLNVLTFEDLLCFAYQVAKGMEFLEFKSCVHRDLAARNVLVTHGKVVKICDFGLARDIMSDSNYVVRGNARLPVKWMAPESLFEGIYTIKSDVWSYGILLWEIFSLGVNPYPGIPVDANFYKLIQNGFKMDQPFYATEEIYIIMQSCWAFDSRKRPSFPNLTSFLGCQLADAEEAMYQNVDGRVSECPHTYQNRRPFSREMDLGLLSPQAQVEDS

[3] = tested on: dystrophic golden retriever (GRMD) dogs; test: Plasma CK activity in GRMD dogs; format: in vivo, dog; details: 7-month-old GRMD, 14 days oral gavage
Protocol: Plasma from mice and dogs were analyzed for CK activity using standard protocols (Pointe Scientific, Thermo Fisher Scientific).
Studies were performed in two phases. In the first phase, GRMD (n = 4, female, 7 months old) were dosed PO daily with vehicle for 2 weeks, followed by a suspension of EDG-5506 (3 mg/kg daily for 2 days, then 1 mg/kg daily for 2 weeks) and then with vehicle for 2 weeks. Blood was drawn at regular intervals (2–3 draws during the vehicle baseline, 5–8 draws during the dosing period, and 2 draws during the vehicle washout). In a separate dosing period, the same 4 dogs (10 months old) were administered vehicle for 14 days with regular blood draws (6–9 for each dog across the 14-day period). CK activity (Pointe Scientific, Thermo Fisher Scientific) was measured from plasma. In the second phase, the same 4 dogs (15 months old) were fitted with a collar-bound activity monitor (Fitbark 2, Fitbark Inc.) as described previously ([42]), and baseline activity was recorded for 27 days before daily oral gavage with vehicle for 22 days. Three dogs were then dosed in a similar pattern to phase 1 with EDG-5506 (2 mg/kg for 4 days and then 2 mg/kg every other day for 7 days). The fourth dog was dosed with vehicle over the same period. […] Average daily activity (“Fitbark points”) and time performing various activities (play, rest, active) were recorded.

PDGFRA = molecular target: T3, PDGFRA (Homo sapiens, UniProt P16234); test: KINOMEscan scanEDGE; format: binding; details: 20 uM
T3 construct: purchased Eurofins DiscoverX (KINOMEscan; SAFETYscan E/IC50 ELECT)
T3 sequence (P16234 24-1089): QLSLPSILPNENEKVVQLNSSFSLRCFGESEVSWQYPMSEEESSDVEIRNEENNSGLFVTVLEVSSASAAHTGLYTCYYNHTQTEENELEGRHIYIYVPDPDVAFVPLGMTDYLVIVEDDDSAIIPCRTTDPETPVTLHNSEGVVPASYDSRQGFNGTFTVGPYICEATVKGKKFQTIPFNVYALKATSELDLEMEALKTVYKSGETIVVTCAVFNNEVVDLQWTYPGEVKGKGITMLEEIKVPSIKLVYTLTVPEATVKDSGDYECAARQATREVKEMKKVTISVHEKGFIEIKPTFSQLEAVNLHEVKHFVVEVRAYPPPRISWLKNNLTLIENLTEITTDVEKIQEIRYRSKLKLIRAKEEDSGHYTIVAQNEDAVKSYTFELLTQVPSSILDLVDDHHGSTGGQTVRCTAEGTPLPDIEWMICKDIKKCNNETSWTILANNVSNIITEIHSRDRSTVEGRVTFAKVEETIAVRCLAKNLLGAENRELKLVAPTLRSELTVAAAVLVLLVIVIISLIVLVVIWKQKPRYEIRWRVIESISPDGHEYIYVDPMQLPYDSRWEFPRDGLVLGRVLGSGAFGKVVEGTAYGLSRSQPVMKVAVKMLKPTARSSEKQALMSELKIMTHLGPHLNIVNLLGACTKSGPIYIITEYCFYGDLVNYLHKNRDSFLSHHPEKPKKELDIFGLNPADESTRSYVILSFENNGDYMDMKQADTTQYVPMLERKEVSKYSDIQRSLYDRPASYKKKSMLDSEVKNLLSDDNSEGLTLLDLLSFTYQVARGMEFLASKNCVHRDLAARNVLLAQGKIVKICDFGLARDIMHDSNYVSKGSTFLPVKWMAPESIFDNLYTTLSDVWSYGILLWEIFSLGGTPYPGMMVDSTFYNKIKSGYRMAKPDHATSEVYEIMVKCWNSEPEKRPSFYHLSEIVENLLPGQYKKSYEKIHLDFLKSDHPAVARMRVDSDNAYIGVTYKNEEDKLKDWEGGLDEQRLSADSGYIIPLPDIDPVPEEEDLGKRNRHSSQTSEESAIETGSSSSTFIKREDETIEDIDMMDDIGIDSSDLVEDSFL

[4] = tested on: slow skeletal rat soleus fibers; test: Skinned fiber force, rat soleus; details: 100% type I, EDG-5506
Protocol: Measurement of isometric force in skinned fibers from rabbit psoas, rat soleus, and rat cardiac trabeculae were performed as described previously ([65]) with an 802D fiber system (Aurora Scientific). Muscle bundles were thawed from –80°C and placed in relaxing solution. Single fibers were transferred to the testing apparatus with steel pins connected to a force transducer and motor (model 403A and 322C, Aurora Scientific), and collodion glue was applied. Temperature was set to 15°C for skeletal fibers and 30°C for rat cardiac trabeculae. The wells of the 802D were filled with different ratios of relaxing and activating pCa solutions as detailed previously ([65]). All control solutions contained 1% final DMSO. Traces were compared between control and compound runs to evaluate isometric force and calcium sensitivity.

CSNK1D = molecular target: T4, CSNK1D (Homo sapiens, UniProt P48730); test: KINOMEscan scanEDGE; format: binding; details: 20 uM
T4 construct: purchased Eurofins DiscoverX (KINOMEscan; SAFETYscan E/IC50 ELECT)
T4 sequence (P48730 whole entry): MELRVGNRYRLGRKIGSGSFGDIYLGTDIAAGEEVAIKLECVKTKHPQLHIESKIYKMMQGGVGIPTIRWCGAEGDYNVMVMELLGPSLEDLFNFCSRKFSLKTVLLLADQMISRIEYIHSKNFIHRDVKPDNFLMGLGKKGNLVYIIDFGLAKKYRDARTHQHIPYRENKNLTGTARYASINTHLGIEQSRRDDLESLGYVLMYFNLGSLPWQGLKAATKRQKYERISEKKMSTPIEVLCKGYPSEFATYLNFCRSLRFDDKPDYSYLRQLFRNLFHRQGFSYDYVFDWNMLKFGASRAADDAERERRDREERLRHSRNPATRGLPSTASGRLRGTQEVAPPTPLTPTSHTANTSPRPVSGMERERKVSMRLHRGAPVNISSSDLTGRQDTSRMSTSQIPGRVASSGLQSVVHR

mdx mice [5] = test: Chronic 8-week dosing in mdx mice (fibrosis, weights, histology); format: in vivo, mouse
Excerpt: C57BL/6 (stock no. 000664), C57BL/10J (stock no. 000665, control for mdx experiments), C57BL/10ScSn-Dmd^mdx/J (mdx, stock no. 001801), and D2.B10 (DBA/2-congenic) Dmd^mdx (DBA/2J mdx, stock no. 013141) mice were from The Jackson Laboratory. Sprague-Dawley rats were purchased from Charles River Laboratories. For ex vivo experiments, mice were 10–16 weeks old. For in situ experiments, mice were 8–14 weeks of age. For in vivo chronic dosing studies, mdx and DBA/2J mdx were 4–5 weeks of age at study start. Dosing was via a 10 mL/kg suspension (1% methyl cellulose, 0.1% Tween 80 in water). For studies in 14-day-old preweaning mice, PO dosing was via syrup suspension (3 mg/kg/d). GRMD were supplied by Texas A&M Department of Veterinary Integrative Biosciences.
For sterile muscle injury, mice were anesthetized with isoflurane and 50 μL cardiotoxin (12 × 10^–6 M, 217503, Millipore) injected in the TA muscle. Muscles 8 days after injury were snap frozen in nitrogen-chilled isopentane. 8 μm cryosections were cut and stained with H&E. For each analysis, more than 10 slides (per condition/group) containing 6 muscle sections/sample were used, and myofibers in the injured area were counted and measured with a Mirax digital scanner and HALO software ([68]). For adult mouse studies, muscles were fixed in 10% formalin and embedded in paraffin for sectioning. Laminin staining (RB-082, Thermo Fisher Scientific) was used to outline fibers, and picrosirius red was used for collagen accumulation. Image analysis was performed using ImarisX64 software (Bitplane AG), and fiber sizing was calculated using minimal Feret’s diameter ([69]). For after weaning juvenile mouse studies, cryosections from soleus muscles were mounted in ProLong antifade mountant with DAPI (Thermo Fisher Scientific). Fiber type, size, and central nucleation were quantified with analysis via SMASH ([70]) and ImageJ (NIH). Antibodies used were mouse anti-MHC2A (1:50, SC-71, Developmental Studies Hybridoma Bank) and mouse anti-eMHC (1:10, BF-45, Developmental Studies Hybridoma Bank).

T1 sequence (P00519 whole entry E255K): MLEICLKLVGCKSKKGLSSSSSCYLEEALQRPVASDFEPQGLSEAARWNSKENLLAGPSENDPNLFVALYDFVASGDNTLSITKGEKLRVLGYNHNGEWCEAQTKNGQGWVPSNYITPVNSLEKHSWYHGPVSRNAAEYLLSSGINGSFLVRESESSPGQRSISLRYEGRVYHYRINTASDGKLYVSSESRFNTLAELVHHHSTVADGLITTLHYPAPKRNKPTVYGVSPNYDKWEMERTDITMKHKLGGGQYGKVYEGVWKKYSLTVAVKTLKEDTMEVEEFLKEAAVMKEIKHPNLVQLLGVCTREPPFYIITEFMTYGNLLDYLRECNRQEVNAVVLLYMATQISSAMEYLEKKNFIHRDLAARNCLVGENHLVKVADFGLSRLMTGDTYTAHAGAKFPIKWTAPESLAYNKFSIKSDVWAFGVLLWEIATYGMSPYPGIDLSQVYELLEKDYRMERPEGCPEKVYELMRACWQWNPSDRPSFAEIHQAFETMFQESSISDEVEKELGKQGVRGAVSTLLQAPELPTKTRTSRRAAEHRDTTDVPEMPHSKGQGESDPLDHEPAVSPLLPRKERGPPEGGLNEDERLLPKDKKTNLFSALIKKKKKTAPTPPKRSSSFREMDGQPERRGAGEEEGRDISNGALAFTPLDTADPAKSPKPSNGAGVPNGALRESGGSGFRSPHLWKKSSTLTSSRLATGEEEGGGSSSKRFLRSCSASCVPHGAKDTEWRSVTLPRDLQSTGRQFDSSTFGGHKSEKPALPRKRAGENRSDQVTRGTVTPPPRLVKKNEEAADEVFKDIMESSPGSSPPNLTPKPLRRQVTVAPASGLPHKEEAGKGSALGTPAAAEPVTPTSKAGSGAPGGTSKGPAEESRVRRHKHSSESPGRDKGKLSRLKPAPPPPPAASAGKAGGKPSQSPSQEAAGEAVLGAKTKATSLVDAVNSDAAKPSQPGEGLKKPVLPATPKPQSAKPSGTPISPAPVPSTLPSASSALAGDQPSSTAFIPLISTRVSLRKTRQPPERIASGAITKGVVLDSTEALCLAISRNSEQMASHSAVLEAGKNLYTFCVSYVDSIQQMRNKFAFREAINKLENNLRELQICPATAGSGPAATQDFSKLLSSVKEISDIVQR

O=c1ccc(-c2cnc(OCC(F)(F)F)nc2)nn1Cc1cncc(F)c1 [EDG-5506]
binding, % of control [1]: 83 % of control | Evans blue dye-positive fibers (mdx mice [2]): reduced blue fibers close to the level seen in WT mice | binding, % of control (FLT3): 89 % of control | decrease in CK [3]: more than 50% | binding, % of control (PDGFRA): 100 % of control | effect on force, slow skeletal fibers [4]: no effect | binding, % of control (CSNK1D): 94 % of control | body or muscle weight (mdx mice [5]; 8 weeks): no effect | diaphragm fibrosis (collagen, picrosirius red) (mdx mice [5]; 8 weeks of treatment): decreased diaphragm fibrosis | average grip strength (mdx mice [5]; after 5 weeks of dosing): increased average grip strength

Source: publication PMC10178848, “Modulating fast skeletal muscle contraction protects skeletal muscle in animal models of Duchenne muscular dystrophy” (The Journal of Clinical Investigation, 2023)
